Source: patent US5480869A, “Anti-inflammatory peptide analogs and treatment to inhibit vascular leakage in injured tissues” (The Regents of the University of California, priority 1993, dated 1996)
Where a SMILES comes first, the peptide text is derived from it. [ ]: non-standard residue; d: D form.

Test system: rat's hind paw heat-edema
Test: heat-induced paw edema in pentobarbital-anesthetized rat (58° C. water, 1 minute)
Assay type: in vivo
Details: for Heat-Edema % Saline Values: ten minutes before 58° C. water for 1 minute, edema measured 30 minutes after heat; for anti-inflammatory activity, result in words: heat-edema, relative to saline controls
Procedure: The inventive peptides were dissolved either in saline or saline acidified with 0.1 M acetic acid and injected intravenously into a pentobarbital-anesthetized rat. The rat's hind paw was then immersed in 58°-60° C. water for 1 minute and the increase in paw weight, as an index of edema and swelling, was measured 30 minutes later. For some peptides, the ability of the substances to inhibit vascular leakage after muscle injury was also tested. Normally, the paw weight of saline-treated animals (controls) will increase by about 65-95% after heat injury. The increase in weight is relative to the contralateral non-heated paw.
In screening the bioactivity of new peptides, a dose of 5 mg/kg i.v. was initially used. In later studies, when greater activity was expected, a screening dose of 1 to 2 mg/kg i.v. was used.
Thus, each peptide was injected intravenously (at the amounts specified, usually 1 or 5 mg/kg, or by full dose-response analysis) 10 minutes (for 7/8-mers) or one hour (for 11-mers) before immersion of the right paw in 58° C. water, for 1 minute, and weights of both paws were obtained 30minutes later. To obtain statistical accuracy, four to six animals were used in each group. The % wt increase was calculated as (wt of heated paw--wt of unheated paw/wt of unheated paw)×100 and converted to % of the saline control group values, which were run concurrently.

[1] = i.y. [sic], 7/8-mers, ten minute interval between administration and 58° C. water for 1 minute, edema 30 minutes after heat, Table 3

Molecule: CC[C@H](C)[C@H](NC(=O)[C@H](Cc1ccc(OC)cc1)NC(=O)[C@H](CCSC)NC(=O)[C@H](CC(C)C)NC(=O)[C@H](CCCCN)NC(=O)[C@@H](CCCNC(=N)N)NC(C)=O)C(=O)N[C@H](CC(C)C)C(N)=O [Composition 27] (Ac-[dR]KLMY(Me)I[dL]-NH2)
- ED50 (95% confidence limits) [1]: 0.52 (0.19-1.8) mg/kg

Molecule: CC[C@H](C)[C@H](NC(=O)[C@H](Cc1ccc(OC)cc1)NC(=O)[C@H](CCSC)NC(=O)[C@H](CC(C)C)NC(=O)[C@H](CCCCN)NC(=O)[C@@H](CCCCN)NC(C)=O)C(=O)N[C@H](CC(C)C)C(N)=O [Composition 16] (Ac-[dK]KLMY(Me)I[dL]-NH2)
- Heat-Edema % Saline Values (dose 2 mg/kg i.v.): 67 ± 11 % Saline Values
- anti-inflammatory activity, result in words: retention of activity

Molecule: CC[C@H](C)[C@H](NC(=O)[C@H](Cc1ccc(OC)cc1)NC(=O)[C@@H](NC(=O)[C@H](CC(C)C)NC(=O)[C@H](CCCCN)NC(=O)[C@H](CCCNC(=N)N)NC(C)=O)C(C)C)C(=O)N[C@H](CC(C)C)C(N)=O [Composition 17] (Ac-RKLVY(Me)I[dL]-NH2)
- Heat-Edema % Saline Values (dose 2 mg/kg i.v.): 49 ± 9 % Saline Values
- anti-inflammatory activity, result in words: retains activity, albeit at a lower potency

Molecule: CC[C@H](C)[C@H](NC(=O)[C@@H](Cc1c[nH]cn1)NC(=O)[C@H](CC(C)C)NC(=O)[C@H](CC(C)C)NC(=O)[C@H](CCCCN)NC(=O)[C@@H](N)CCCNC(=N)N)C(=O)N[C@H](CC(C)C)C(N)=O [Composition 20] (HELM PEPTIDE1{R.K.L.L.[dH].I.[dL].[am]}$$$$V2.0)
- ED50 (95% confidence limits) [1]: 2.3 (1.2-4.2) mg/kg

Molecule: 1ATyRKLL(β-thienyl-D--Ala)Il-NH2
- ED50 (95% confidence limits) (i.v., 11-mers, injected one hour before 58° C. water for 1 minute, paw weight 30 minutes later, Table 1): 0.015 (0.006-0.036) mg/kg

Molecule: CC[C@H](C)[C@H](NC(=O)[C@H](Cc1c[nH]c2ccccc12)NC(=O)[C@H](CCSC)NC(=O)[C@H](CC(C)C)NC(=O)[C@H](CCCCN)NC(=O)[C@@H](N)CCCNC(=N)N)C(=O)N[C@H](CC(C)C)C(N)=O [Composition 7] (HELM PEPTIDE1{R.K.L.M.W.I.[dL].[am]}$$$$V2.0)
- Heat-Edema % Saline Values (dose 5 mg/kg i.v., N.S. = not different from saline): 38 ± 5 % Saline Values

Molecule: CC[C@H](C)[C@H](NC(=O)[C@@H](CCCCN)NC(=O)[C@H](CC(C)C)NC(=O)[C@H](CC(C)C)NC(=O)[C@H](CCCCN)NC(=O)[C@H](CCCNC(=N)N)NC(C)=O)C(=O)N[C@H](CC(C)C)C(N)=O [Composition 19] (HELM PEPTIDE1{[ac].R.K.L.L.[dK].I.[dL].[am]}$$$$V2.0)
- Heat-Edema % Saline Values (dose 1 mg/kg i.v.): 23 ± 8 % Saline Values

Molecule: CC[C@H](C)[C@H](NC(=O)[C@H](CCCNC(=N)N)NC(=O)[C@H](CCCNC(=N)N)NC(C)=O)C(=O)N[C@H](C(=O)N[C@@H](Cc1ccc(OC)cc1)C(=O)N[C@H](C(=O)N[C@H](CC(C)C)C(N)=O)[C@@H](C)CC)[C@@H](C)CC [Composition 26] (Ac-RRIIY(Me)I[dL]-NH2)
- anti-inflammatory activity, result in words: potent anti-inflammatory properties
- ED50 (95% confidence limits) [1]: 0.70 (0.40-1.2) mg/kg

Molecule: CC[C@H](C)[C@H](NC(=O)[C@@H](CCCNC(=N)N)NC(=O)[C@H](CC(C)C)NC(=O)[C@H](CC(C)C)NC(=O)[C@H](CCCCN)NC(=O)[C@@H](N)CCCNC(=N)N)C(=O)N[C@H](CC(C)C)C(N)=O [Composition 21] (HELM PEPTIDE1{R.K.L.L.[dR].I.[dL].[am]}$$$$V2.0)
- ED50 (95% confidence limits) [1]: 2.0 (0.80-5.0) mg/kg

Molecule: CC[C@H](C)[C@H](NC(=O)[C@@H](CC(C)C)NC(=O)[C@H](CC(C)C)NC(=O)[C@H](CC(C)C)NC(=O)[C@H](CCCCN)NC(=O)[C@@H](N)CCCNC(=N)N)C(=O)N[C@H](CC(C)C)C(N)=O [Composition 23] (HELM PEPTIDE1{R.K.L.L.[dL].I.[dL].[am]}$$$$V2.0)
- ED50 (95% confidence limits) [1]: 1.3 (0.50-3.6) mg/kg

Molecule: CC[C@H](C)[C@H](NC(=O)[C@H](Cc1ccc(OC)cc1)NC(=O)[C@H](CCSC)NC(=O)[C@H](CC(C)C)NC(=O)[C@H](CCCCN)NC(=O)[C@H](CCCNC(=N)N)NC(C)=O)C(=O)N[C@H](CC(C)C)C(N)=O [Composition 18] (Ac-RKLMY(Me)I[dL]-NH2)
- Heat-Edema % Saline Values (dose 2 mg/kg i.v.): 27 ± 1 % Saline Values
